Test results: ChEMBL document CHEMBL1201862, “PubChem BioAssay data set” (2004)
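Cells were grown in 96-well plates and exposed to each compound for 48 hours at five concentrations; endpoints were interpolated linearly between bracketing concentrations, or set to the highest concentration if not reached. The concentration for 50% growth inhibition is given as GI50.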 Active and inactive are the calls of the source. Rule as the data show it: active = GI50 up to about 1.1 µM and inactive = higher.

Assays:
Assay in all cases: DTP human tumour cell line panel, 48 h
HOP-62 = test system: HOP-62
SK-MEL-2 = test system: SK-MEL-2
HOP-92 = test system: HOP-92
CAKI-1 = test system: CAKI-1
MDA-N = test system: MDA-N
OVCAR-3 = test system: OVCAR-3
U-251 = test system: U-251
UACC-257 = test system: UACC-257
K562 = test system: K562
NCI-H522 = test system: NCI-H522
CCRF-CEM = test system: CCRF-CEM
MOLT-4 = test system: MOLT-4
SW-620 = test system: SW-620
IGROV-1 = test system: IGROV-1

Measured: GI50

CC1=C(C)CC2C(=O)N(c3cc(C(C)(C)C)ccc3C(C)(C)C)C(=O)C2C1 (configuration not stated)
inactive: HOP-62 26.2 µM | SK-MEL-2 > 100 µM | HOP-92 26.2 µM | CAKI-1 > 100 µM | MDA-N > 100 µM | OVCAR-3 66.2 µM | U-251 47.1 µM | UACC-257 > 100 µM | K562 > 100 µM | NCI-H522 8.2 µM | CCRF-CEM > 100 µM | MOLT-4 > 100 µM | SW-620 > 100 µM | IGROV-1 61 µM

CC(=O)OCC1OC(NC(=S)Nn2c(=O)[nH]c3ccccc3c2=O)C(OC(C)=O)C(OC(C)=O)C1OC(C)=O (configuration not stated)
inactive: HOP-62 > 100 µM | SK-MEL-2 > 100 µM | HOP-92 > 100 µM | CAKI-1 > 100 µM | MDA-N > 100 µM | OVCAR-3 > 100 µM | U-251 > 100 µM | UACC-257 > 100 µM | NCI-H522 > 100 µM | CCRF-CEM 49.5 µM | MOLT-4 > 100 µM | SW-620 > 100 µM | IGROV-1 > 100 µM

N#Cc1nc(C#N)n(S(=O)(=O)c2ccccc2)c1NS(=O)(=O)c1ccccc1
inactive: HOP-62 > 100 µM | SK-MEL-2 > 31.6 µM | HOP-92 > 100 µM | CAKI-1 > 37.8 µM | MDA-N > 100 µM | OVCAR-3 > 100 µM | U-251 > 100 µM | UACC-257 > 100 µM | K562 > 100 µM | NCI-H522 > 100 µM | CCRF-CEM > 100 µM | MOLT-4 > 100 µM | SW-620 > 100 µM | IGROV-1 > 100 µM

COc1ccc(N/N=C2\CCOc3ccc(C)cc3C2=O)cc1
inactive: HOP-62 39.2 µM | SK-MEL-2 16.8 µM | HOP-92 18.1 µM | CAKI-1 27.9 µM | MDA-N 3.98 µM | OVCAR-3 43.2 µM | U-251 20.9 µM | UACC-257 14.9 µM | K562 4.43 µM | NCI-H522 24.7 µM | CCRF-CEM 16.3 µM | MOLT-4 11.1 µM | SW-620 20 µM | IGROV-1 17.7 µM

Cc1ccc(-c2nc(N/N=C/c3ccc(O)cc3)c3ccccc3n2)cc1
inactive: HOP-62 31.9 µM | SK-MEL-2 15.8 µM | HOP-92 32.4 µM | CAKI-1 10.8 µM | MDA-N 7.87 µM | OVCAR-3 4.29 µM | U-251 19.8 µM | UACC-257 4.06 µM | K562 22.8 µM | NCI-H522 14.2 µM | CCRF-CEM 15.8 µM | MOLT-4 20.5 µM | SW-620 19 µM | IGROV-1 8.47 µM

CCN(CC)C1Oc2cc3c(cc2C(c2ccc(OC)cc2)C1C)OCO3 (configuration not stated)
inactive: HOP-62 24.8 µM | SK-MEL-2 17.6 µM | HOP-92 25.3 µM | CAKI-1 24.9 µM | MDA-N 17.5 µM | OVCAR-3 18.2 µM | U-251 22.2 µM | UACC-257 15.9 µM | K562 19.1 µM | NCI-H522 15 µM | CCRF-CEM 15.5 µM | MOLT-4 17.6 µM | SW-620 30.3 µM | IGROV-1 29.5 µM

COC(=O)C1=C(C(=O)OC)C2(/N=C(\Nc3ccccc3)c3ccccc3)N(c3ccc(OC)cc3)CC(c3ccccc3)N2O1 (configuration not stated)
inactive: HOP-62 > 100 µM | SK-MEL-2 > 100 µM | HOP-92 53.6 µM | CAKI-1 > 100 µM | MDA-N > 100 µM | OVCAR-3 > 100 µM | U-251 > 100 µM | UACC-257 > 100 µM | K562 > 100 µM | NCI-H522 > 100 µM | CCRF-CEM > 100 µM | MOLT-4 > 100 µM | SW-620 > 100 µM | IGROV-1 > 100 µM

COC(=O)c1ccc(/C=N/c2cc(C)nn2-c2ccccc2)cc1
inactive: HOP-62 18.5 µM | SK-MEL-2 49 µM | HOP-92 99.1 µM | CAKI-1 93.1 µM | MDA-N 13.8 µM | OVCAR-3 12 µM | U-251 20.6 µM | UACC-257 6.04 µM | K562 4.5 µM | NCI-H522 28.8 µM | CCRF-CEM 29.2 µM | MOLT-4 8.47 µM | SW-620 20.7 µM | IGROV-1 34.9 µM

Cc1cccc(/C=N/NC(=S)NC2CCCCC2)n1
inactive: HOP-62 20.9 µM | SK-MEL-2 24.1 µM | HOP-92 10.1 µM | CAKI-1 43.3 µM | MDA-N 28.4 µM | OVCAR-3 3.7 µM | U-251 20.5 µM | UACC-257 17.3 µM | K562 4.61 µM | NCI-H522 7.96 µM | CCRF-CEM 1.14 µM | MOLT-4 2.26 µM | SW-620 9.25 µM | IGROV-1 21.3 µM

Cc1ccc(S(=O)(=O)NN=C2C(C)(C)CC2(C)C)cc1
inactive: HOP-62 > 100 µM | SK-MEL-2 > 100 µM | HOP-92 > 100 µM | CAKI-1 > 100 µM | MDA-N > 100 µM | OVCAR-3 > 100 µM | U-251 > 100 µM | UACC-257 > 100 µM | K562 76.2 µM | NCI-H522 > 100 µM | CCRF-CEM 68.7 µM | MOLT-4 > 100 µM | SW-620 > 100 µM | IGROV-1 > 100 µM

O=C(CC(O)(C(F)(F)F)C(F)(F)F)C(c1ccccc1)C(O)(C(F)(F)F)C(F)(F)F (configuration not stated)
inactive: SK-MEL-2 35.1 µM | HOP-92 3.72 µM | CAKI-1 10.5 µM | MDA-N 78.2 µM | OVCAR-3 11.5 µM | U-251 5.45 µM | UACC-257 31.8 µM | K562 7.6 µM | NCI-H522 38.3 µM | CCRF-CEM 5.56 µM | MOLT-4 62.8 µM | SW-620 14.4 µM | IGROV-1 5.77 µM

CC(=O)NNc1nc(C)c(C(/C=C/c2ccc([N+](=O)[O-])cc2)=N/NC(N)=S)s1
inactive: HOP-62 > 100 µM | SK-MEL-2 > 100 µM | HOP-92 > 100 µM | CAKI-1 > 100 µM | MDA-N > 100 µM | OVCAR-3 > 100 µM | U-251 > 100 µM | UACC-257 > 100 µM | NCI-H522 > 100 µM | CCRF-CEM > 100 µM | MOLT-4 > 100 µM | SW-620 > 100 µM | IGROV-1 > 100 µM

C=C1[C@H](OC(=O)C(C)C)[C@]23CC4(O)[C@@H]5[C@@]6(C)CCC[C@]57C([C@@H]2C[C@@]1(O)[C@H](O)[C@@H]73)N4C6
inactive: HOP-62 > 100 µM | SK-MEL-2 > 100 µM | HOP-92 > 100 µM | CAKI-1 > 100 µM | MDA-N > 100 µM | OVCAR-3 > 100 µM | U-251 > 100 µM | UACC-257 > 100 µM | NCI-H522 > 100 µM | CCRF-CEM > 100 µM | MOLT-4 > 100 µM | SW-620 > 100 µM | IGROV-1 > 100 µM

O=NNc1cnc(O)nc1O
inactive: HOP-62 > 100 µM | SK-MEL-2 > 100 µM | HOP-92 > 100 µM | CAKI-1 > 100 µM | MDA-N > 100 µM | OVCAR-3 74.8 µM | U-251 > 100 µM | UACC-257 > 100 µM | K562 > 100 µM | NCI-H522 > 100 µM | CCRF-CEM > 100 µM | MOLT-4 > 100 µM | SW-620 > 100 µM | IGROV-1 52.4 µM
